12 molecules from PubChem BioAssay (NCI) can be followed below.

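Cells were grown in 96-well plates and exposed to each compound for 48 hours at five concentrations; endpoints were interpolated linearly between bracketing concentrations, or set to the highest concentration if not reached. GI50 marks 50% less growth. TGI: concentration producing complete growth inhibition.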

Common to all, as to assay: growth of human tumour cells (NCI), 48 h
In test [1] the test system is A549 NSCLC.
The subject of test [2] is HOP-92 NSCLC.
Test [3] has as its system IGROV1 ovarian.
The test system of test [4] is LOX IMVI melanoma.
In test [5] the test system is NCI-H226 lung.
The test system of test [6] is NCI-H522 lung.
Test [7] relates to NCI/ADR-RES ovarian.
The subject of test [8] is PC-3 prostate.
The subject of test [9] is SF-539 CNS.
For test [10], the system named is SN12C renal.

Turning to `CN1CCN(c2ccc3nc(-c4ccc5nc(-c6ccc(N(C)CCCl)cc6)[nH]c5c4)[nH]c3c2)CC1`, the TGI in test [1] worked out at 10.1 µM; in test [2], 0.989 µM; in test [3], 0.391 µM; in [4], 0.218 µM; in [5], 5.2 µM; in test [6], 0.0365 µM. For the same molecule, the TGI in test [7] was more than 100 µM; in test [8], 0.383 µM; in test [9] it was 0.462 µM; in test [10], 1.13 µM.

Consider `CCCCCCCCC[C@@H]1C[C@@H]2CCC3C(C(=O)OCCCCNC(=O)OCc4ccccc4)=C(C)NC(=N1)N32` (stereo not given in full), for which the TGI in [1] came to 23.3 µM; in [2], 7.08 µM; in test [3], 6.11 µM; in test [4], 4.31 µM; in test [5], 11.6 µM; in test [6], 6.01 µM. Further, the TGI in [7] was determined as 7 µM; in test [8] it was 7.32 µM; in test [9] it was 14.4 µM; in test [10], 10.7 µM.

Turning to `O=S(=O)(Nc1nc(-c2cc(O)c(O)c(O)c2)cs1)c1ccc(Cl)cc1Cl`, the TGI in test [1] was more than 100 µM; in test [2], more than 100 µM; in test [3], 45.9 µM; in [4], 33.6 µM; in test [5] it was more than 100 µM; in test [6] it was 34.5 µM. For the same molecule, the TGI in [7] is 69 µM; in test [8] it was more than 100 µM; in test [9] it was 71.5 µM; in [10] it was 33.4 µM.

With `COc1ccc2c(c1)-c1c(c3ccccc3n1CCN1CCOCC1)CC2`, the TGI in [1] is more than 100 µM; in test [2], more than 100 µM; in test [3], 38.5 µM; in test [4], 34.5 µM; in [5], 26.3 µM; in test [6], 37.3 µM. Moreover, the TGI in test [7] was 46 µM; in [8] it was 45.3 µM; in [9], 52.4 µM; in test [10], more than 100 µM.

In the case of `CC1(C)C(C(=O)OC(C#N)c2cccc(OCC(=O)OCc3ccccc3)c2)C1(C)C` (stereo not given), the TGI in [1], in test [2], in test [3], in test [4], in [5] and in test [6] was more than 100 µM each time. Moreover, the TGI in [7], in [8], in [9] and in test [10] was more than 100 µM in each case.

Consider `CC(=N\N=C\c1ccccn1)/C(C)=N/N=C/c1ccccn1`, for which the TGI in [1], in [2], in [3], in [4], in test [5] and in test [6] was more than 100 µM each time. The TGI in test [7], in test [8], in test [9] and in test [10] was more than 100 µM in each case.

On to `COc1cc(C2c3cc4c(cc3OC(N3CCOCC3)C2C)OCO4)cc(OC)c1OC` (stereo not given), for which the TGI was more than 69.2 µM in test [1]; 60.2 µM in test [2]; 47.7 µM in test [3]; more than 53.3 µM in [4]; 11.2 µM in [5]; 9.61 µM in test [6]. Further, the TGI is 2.01 µM in test [7], more than 100 µM in test [8], 1.69 µM in test [9] and more than 100 µM in [10].

With `CCOc1ccc(-n2c(=O)n3c(Nc4ccc(Cl)cc4)nc4c(c(=O)n(C)c(=O)n4C)n3c2=O)cc1`, the TGI in test [1] is more than 100 µM; in test [2], 48.2 µM; in [3], more than 100 µM; in test [4], 44.8 µM; in [5], 74.5 µM; in [6], 32.8 µM. Besides, the TGI in test [7] was more than 100 µM; in test [8], more than 100 µM; in [9], more than 100 µM; in test [10] it was 74.6 µM.

For the molecule `O=C(O)[C@H]1NC[C@@H]2ON=C(Br)[C@@H]21`, the TGI in test [1], in test [2], in [3], in test [4], in [5] and in test [6] was more than 100 µM each time. Also, the TGI in test [7], in [8], in [9] and in [10] was more than 100 µM in each case.

Consider `CCNC(=O)CCCCC(=O)c1c(C)[nH]c(/C=C2\N=C(c3ccc[nH]3)C=C2OC)c1C`, for which the GI50 in test [1] was 4.72 µM; in test [2], 2.04 µM; in test [3], 3.82 µM; in test [4], 1.76 µM; in [5], 20.3 µM; in test [6], 2.2 µM. Moreover, the GI50 was 2.94 µM in test [7], 1.63 µM in test [8], 1.59 µM in test [9] and 2.47 µM in test [10]. The TGI in test [1] was 21.4 µM; in test [2], 9.69 µM; in test [3], more than 100 µM; in [4], 3.65 µM; in test [5] it was 41.1 µM; in test [6], 5.48 µM. Further, the TGI in test [7] stood at 10.8 µM; in test [8] it was 5.8 µM; in [9], 3.34 µM; in [10] it was 6.16 µM.

For `COc1ccc(-c2cc(-c3ccc(Nc4ccnc5cc(C(F)(F)F)ccc45)cc3)[nH]c(=O)c2C#N)cc1`, the TGI is more than 100 µM in test [1]; more than 100 µM in [2]; more than 100 µM in [3]; more than 100 µM in test [4]; more than 70.9 µM in test [5]; more than 100 µM in test [6]. For the same molecule, the TGI in [7] is more than 100 µM; in test [8], more than 100 µM; in test [9] it was more than 68.9 µM; in [10] it was more than 100 µM.

In the case of `COc1ccc(CCN2CCOCC2)cc1`, the TGI in test [1], in [2], in test [3], in [4], in [5] and in [6] was more than 100 µM throughout. Also, the TGI in test [7], in test [8], in test [9] and in test [10] was more than 100 µM throughout.
